Results from patent publication US6380235B1, “Benzimidazolones and analogues” (American Home Products Corporation, priority 1999, dated 2002).
pEC50, pIC50: −log10 of the molar value. Several values for one entry are separate records, joined by “and”; a condition that tells them apart may be missing. Equal values may be shown once. One block for each compound: values may come before it.

How the values were obtained:
T47D cells = assay: T47D cell proliferation assay (BrdU incorporation); assay type: cell-based
Description: 1. T47D Cell Proliferation Assay
The objective of this assay is the determination of progestational and antiprogestational potency by using a cell proliferation assay in T47D cells. A compound's effect on DNA synthesis in T47D cells is measured.
DMEM:F12 (1:1) (GIBCO, BRL) supplemented with 10% (v/v) fetal bovine serum (not heat-inactivated), 100 U/ml penicillin, […] streptomycin, and […] GlutaMax (GIBCO, BRL).
Minimum Essential Medium (MEM) (#51200-038GIBCO, BRL) phenol red-free supplemented with 0.5% charcoal stripped fetal bovine serum, 100 U/ml penicillin, […] streptomycin, and 2 mM GlutaMax (GIBCO, BRL). […]
At the end of BrdU labeling, the medium is removed and BrdU incorporation is measured using a cell proliferation ELISA kit (#RPN 250, Amersham Life Science) according to manufacturer's instructions. […] Then 25 μl of 1 M sulfuric acid is added to each well to stop color reaction and optical density is read in a plate reader at 450 nm within 5 min.
Square root-transformed data are used for analysis of variance and nonlinear dose response curve fitting for both agonist and antagonist modes. […] EC50 or IC50 values are calculated from the retransformed values.
Trimegestone and medroxyprogesterone acetate (MPA) are reference progestins and RU486 is the reference antiprogestin. All reference compounds are run in fill dose-response curves and the EC50 or IC50 values are calculated.

[1] = test system: rat uterine decidualization; assay: Rat decidualization assay; assay type: in vivo; conditions: ovariectomized female Sprague-Dawley rats; for Estimated average EC50 for dose-response curves (decidual response): s.c.
Description: 2. Rat Decidualization Assay
b. Animals (RACUC Protocol #5002)
The animals are treated once daily for seven days.
Uteri are removed and trimmed of fat.
Body weight: Mean total animal body weight (default-kg)
Decidual response: [(D-C)/C]×100%

human PR = molecular target: T1, human PR (Homo sapiens, UniProt P06401); assay: PRE-luciferase assay in CV-1 cells (hPR CV-1); assay type: cell-based
T1 construct: expressed in transfected cells; host or cells: CV-1 cells, electroporated with pLEM-hPR-B and pGL3-2xPRE-luciferase
T1 sequence (P06401 1-933): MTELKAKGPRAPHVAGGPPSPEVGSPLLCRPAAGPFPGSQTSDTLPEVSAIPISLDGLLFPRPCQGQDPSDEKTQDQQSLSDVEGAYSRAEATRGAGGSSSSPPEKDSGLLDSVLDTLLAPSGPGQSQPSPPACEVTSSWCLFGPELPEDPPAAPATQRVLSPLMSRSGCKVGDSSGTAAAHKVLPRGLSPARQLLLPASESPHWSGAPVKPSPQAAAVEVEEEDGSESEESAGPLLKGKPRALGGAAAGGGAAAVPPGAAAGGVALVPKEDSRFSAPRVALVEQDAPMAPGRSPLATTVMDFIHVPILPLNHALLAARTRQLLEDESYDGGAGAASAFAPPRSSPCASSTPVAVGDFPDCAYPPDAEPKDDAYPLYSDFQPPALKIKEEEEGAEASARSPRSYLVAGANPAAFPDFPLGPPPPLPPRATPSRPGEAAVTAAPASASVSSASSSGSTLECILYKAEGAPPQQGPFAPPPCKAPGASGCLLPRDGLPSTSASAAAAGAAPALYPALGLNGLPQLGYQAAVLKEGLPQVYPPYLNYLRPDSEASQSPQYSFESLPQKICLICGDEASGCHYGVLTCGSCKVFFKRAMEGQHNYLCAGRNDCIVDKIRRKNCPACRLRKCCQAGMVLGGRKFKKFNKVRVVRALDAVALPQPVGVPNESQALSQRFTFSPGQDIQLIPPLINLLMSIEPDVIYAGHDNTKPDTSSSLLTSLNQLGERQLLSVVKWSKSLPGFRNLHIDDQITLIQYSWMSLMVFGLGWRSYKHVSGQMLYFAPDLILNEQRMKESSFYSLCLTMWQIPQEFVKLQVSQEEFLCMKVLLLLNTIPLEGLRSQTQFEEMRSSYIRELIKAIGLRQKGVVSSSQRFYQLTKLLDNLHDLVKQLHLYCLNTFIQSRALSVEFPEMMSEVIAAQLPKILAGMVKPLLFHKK
Description: 3. PRE-luciferase Assay in CV-1 Cells
The object of this assay is to determine a compound's progestational or antiprogestational potency based on its effect on PRE-luciferase reporter activity in CV-1 cells co-transfected with human PR and PRE-luciferase plasmids. The materials methods used in the assay are as follows.
DMEM (BioWhittaker) containing 10% (v/v) fetal bovine serum (heat inactivated), 0.1 mM MEM non-essential amino acids, 100 U/ml penicillin, […] streptomycin, and 2 mM GlutaMax (GIBCO, BRL). Experimental medium: DMEM (BioWhittaker), phenol red-free, containing 10% (v/v) charcoal-stripped fetal bovine serum (heat-inactivated), 0.1 mM MEM non-essential amino acids, 100 U/ml penicillin, […] streptomycin, and 2 mM GlutaMax (GIBCO, BRL).
b. Cell Culture Transfection Treatment, and Luciferase Assay
Stock CV-1 cells are maintained in growth medium. Co-transfection is done using 1.2×10^7 cells, […] pLEM plasmid with hPR-B inserted at Sphl and BamHl sites, 10 mg pGL3 plasmid with two PREs upstream of the luciferase sequence, and 50 mg sonicated calf thymus DNA as carrier DNA in […]. Electroporation is carried out at 260 V and […] in a Biorad Gene Pulser II. After electroporation, cells are resuspended in growth medium and plated in 96-well plate at 40,000 cells/well in 200 μl. Following overnight incubation, the medium is changed to experimental medium. […] Twenty-four hr. after treatment, the medium is discarded, cells are washed three times with D-PBS (GIBCO, BRL). Fifty μl of cell lysis buffer (Promega, Madison, Wis.) is added to each well and the plates are shaken for 15 min in a Titer Plate Shaker (Lab Line Instrument, Inc.). Luciferase activity is measured using luciferase reagents from Promega.
Each treatment consists of at least 4 replicates. Log transformed data are used for analysis of variance and nonlinear dose response curve fitting for both agonist and antagonist modes. Huber weighting is used to downweight the effects of outliers. EC50 or IC50 values are calculated from the retransformed values.

[2] = test system: alkaline phosphatase activity in T47D cells; assay: T47D cell alkaline phosphatase assay; assay type: cell-based; conditions: antagonist activity in the presence of 1 nM progesterone, 24 hr
Description: 4. T47D Cell Alkaline Phosphatase Assay
The purpose of this assay is to identify progestins or antiprogestins by determining a compound's effect on alkaline phosphatase activity in T47D cells.
DMEM:F12 (1:1) (GIBCO, BRL) supplemented with 5% (v/v) charcoal stripped fetal bovine serum (not heat-inactivated), 100 U/ml penicillin, 100 μg/ml streptomycin, and 2 mM GlutaMax (GIBCO, BRL). b. Alkaline Phosphatase Assay Buffer
I. 0.1 M Tris-HCl, pH 9.8, containing 0.2% Triton X-100
II. 0.1 M Tris-HCl, pH 9.8 containing 4 mM p-nitrophenyl phosphate (Sigma). c. Cell Culture and Treatment
Frozen T47D cells were thawed in a 37° C. water bath and diluted to 280,000 cells/ml in culture medium. To each well in a 96-well plate (Falcon, Becton Dickinson Labware), 180 μl of diluted cell suspension was added. Twenty μl of reference or test compounds diluted in the culture medium was then added to each well. […] The cells were incubated at 37° C. in a 5% CO2/humidified atmosphere for 24 hr. […]
d. Alkaline Phosphatase Enzyme Assay
At the end of treatment, the medium was removed from the plate and fifty μl of assay buffer I was added to each well. The plates were shaken in a titer plate shaker for 15 min. […]
For reference and test compounds, a dose response curve is generated for dose (X-axis) vs. the rate of enzyme reaction (slope) (Y-axis). […] EC50 or IC50 values are calculated from the retransformed values.

Compound: C[C@H](O)C(=O)[C@@]1(C)CC[C@H]2[C@@H]3CCC4=CC(=O)CCC4=C3CC[C@@]21C [Trimegestone]
pEC50 (T47D cells; individual studies, read-out: Estimated EC50 (half-maximal increase in BrdU incorporation)): 10.77 and 10.85 and 10.72

Compound: CC(C)OC(=O)N1CC(=O)Nc2ccc(-c3cccc(Cl)c3)cc21 [Example 29, Isopropyl 7-(3-chlorophenyl)-3-oxo-3,4-dihydroquinoxalin-1(2H)-carboxylate]
melting point: 174 to 176 °C

Compound: C#C[C@]1(O)CC[C@H]2[C@@H]3CCC4=CC(=O)CC[C@@H]4[C@H]3CC[C@@]21CC [Levonorgestrel]
Estimated average EC50 for dose-response curves (decidual response) [1]: 0.10 mg/kg, s.c.

Compound: CC(C)n1c(=O)[nH]c2ccc(-c3cccc([N+](=O)[O-])c3)cc21 [Compound 6]
pIC50 (human PR): 6.83

Compound: O=c1[nH]c2ccc(-c3cccc([N+](=O)[O-])c3)cc2n1Cc1ccccc1 [Compound 2, 1-Benzyl-6-(3-nitro-phenyl)-1,3-dihydro-benzoimidazol-2-one]
pIC50 (human PR): 6.64

Compound: Cn1c(=O)[nH]c2cc(-c3cccc([N+](=O)[O-])c3)ccc21 [Compound 5]
pIC50 (human PR): 6.12

Compound: C#C[C@]1(O)CC[C@H]2[C@@H]3CCC4=CC(=O)CC[C@@H]4[C@H]3C(=C)C[C@@]21CC [3-Ketodesogestrel]
Estimated EC50 for uterine weight (decidual response) ([1]; s.c. once daily for seven days, individual studies): 0.10 mg/kg, s.c. and 0.06 mg/kg, s.c. and 0.11 mg/kg, s.c. | Estimated average EC50 for dose-response curves (decidual response) [1]: 0.10 mg/kg, s.c.

Compound: CC(C)n1c(=O)[nH]c2ccc(-c3cccc(Cl)c3)cc21 [Compound 7]
pIC50 (human PR): 6.81

Continued, values first:

pIC50 (human PR): 6.53
Compound: CCC1Sc2cc(-c3cccc([N+](=O)[O-])c3)ccc2NC1=O (stereo not shown) [Compound B2]

pIC50 [2]: 6.22
Compound: CN1CC(=O)Nc2ccc(-c3cccc(Cl)c3)cc21 [Compound C1, 6-(3-Chloro-phenyl)-4-methyl-3,4-dihydro-1H-quinoxalin-4-one]

pIC50 (human PR): 6.28
Compound: O=C1CNc2cc(-c3cccc(Cl)c3)ccc2N1 [Compound C2]

melting point: 110 to 115 °C
Compound: CCCCN1CC(=O)Nc2ccc(-c3cccc(Cl)c3)cc21 [Compound C6, 4-(n-Butyl)-6-(3-chloro-phenyl)-3,4-dihydro-1H quinoxalin-2-one]

pIC50 (human PR): 6.66
Compound: O=C1CSc2cc(-c3cccc([N+](=O)[O-])c3)ccc2N1 [Compound B1, 7-(3-Nitro-phenyl)-4H-benzo[1,4]thiazin-3-one]

pIC50 (T47D cells; read-out: Estimated IC50 (half-maximal decrease in trimegestone induced BrdU incorporation), in presence of 0.03 nM trimegestone (b226 prints 0.1), individual studies): 10.80 and 10.74
Compound: CC#C[C@]1(O)CC[C@H]2[C@@H]3CCC4=CC(=O)CCC4=C3[C@@H](c3ccc(N(C)C)cc3)C[C@@]21C [RU486]

pIC50 [2]: 6.52
Compound: CN1CC(=O)Nc2ccc(-c3cc(C#N)cs3)cc21 [Compound C3, 5-(3,4-Dihydro-4-methyl-2-oxo-quinaxalin-6-yl)thiophene-3-carbonitrile]
